The values below are quoted from earlier work in patent US20210205254A1, “OMEGA-3 PENTAENOIC ACID COMPOSITIONS AND METHODS OF USE” (Matinas BioPharma, Inc., priority 2012, published 2021).

SMILES strings stand for the structures.

For this series the following is noted: in vivo.

Regarding `CC[C@H](C)C(=O)O[C@H]1C[C@@H](C)C=C2C=C[C@H](C)[C@H](CC[C@@H]3C[C@@H](O)CC(=O)O3)[C@H]21` [lovastatin], the “absorbed (rate)” value was “about 30%”.
`CC(C)n1c(/C=C/C(O)CC(O)CC(=O)O)c(-c2ccc(F)cc2)c2ccccc21` (centres unmarked) [fluvastatin]: the bioavailable result is recorded as “approximately 24%”.
